One experiment addresses Prothrombin (Bos taurus, UniProt P00735). The experiment in a line: thrombin inhibition, dose response, biochemical, fluorescence polarization, uHTS hits (AID 602369). The class given is functional. (Fluorescence polarisation rises when a labelled molecule tumbles more slowly, as on binding a larger partner.)
The target of experiment [1] is 26S proteasome non-ATPase regulatory subunit 14 (Homo sapiens, UniProt O00487). Nature of the experiment: inhibition of proteasome subunit RPN11 – biochemical, fluorescence polarization, uHTS hits, confirmation (AID 602368). Type of experiment: functional.
In experiment [2] the target is 72 kDa type IV collagenase (Homo sapiens, UniProt P08253). The experiment in a line: Dose Response validation of uHTS RPN11 inhibitor hits using a MMP-2 Fluorescence assay. The class given is functional.
In another experiment the test system is HEK293. The experiment in a line: inhibitors of LMP1-driven NF-kB reporter, dose response, cell-based, HEK293, luciferase, cherry-pick (AID 588343). The class given is functional. The settings on record: Homo sapiens.
The subject of the next experiment is H9c2. The experiment in a line: cells. The class given is functional, cell-based. The settings on record: Rattus norvegicus, H9c2, Myocardium.
Experiment [3] can be described thus: Shn3 3'UTR reporter inhibitors, dose response, cell-based, Clone20 osteoblasts, firefly luciferase, cherry-picked (AID 624132).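 Further: firefly luciferase luminescence from reporter carrying the Shn3 3'UTR in osteoblasts.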 The class given is functional.
A short description of experiment [4]: control 3'UTR Renilla luciferase suppression, dose response, counter-screen for Shn3 inhibitor project, cell-based, Clone20-Shn3RL, cherry-picked (AID 624133). The class given is functional. In general terms: Counterscreens check selectivity or assay interference.
The nature of experiment [5]: HepG2 cell cytotoxicity, dose response, cytotoxicity control for Shn3 inhibitor project, CellTiter-Glo, cherry-picked (AID 624134). The class given is functional, cell-based.
For experiment [6], the target named is T1, Adenosylmethionine-8-amino-7-oxononanoate aminotransferase (Mycobacterium tuberculosis, UniProt P9WQ81).
T1 sequence (P9WQ81 whole entry): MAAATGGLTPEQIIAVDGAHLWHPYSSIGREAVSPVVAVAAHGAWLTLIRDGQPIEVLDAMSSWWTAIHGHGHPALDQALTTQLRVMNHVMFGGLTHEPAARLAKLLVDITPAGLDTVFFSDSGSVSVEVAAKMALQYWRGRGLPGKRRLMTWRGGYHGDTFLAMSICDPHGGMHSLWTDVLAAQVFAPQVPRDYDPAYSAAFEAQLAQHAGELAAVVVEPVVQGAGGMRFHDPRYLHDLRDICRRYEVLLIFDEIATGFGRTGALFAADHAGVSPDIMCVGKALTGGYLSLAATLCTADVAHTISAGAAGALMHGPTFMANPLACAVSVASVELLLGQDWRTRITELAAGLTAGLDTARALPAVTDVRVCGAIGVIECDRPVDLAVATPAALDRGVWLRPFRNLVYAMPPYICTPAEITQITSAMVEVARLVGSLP
The experiment in a line: Mycobacterium tuberculosis BioA enzyme inhibitor Measured in Biochemical System Using Plate Reader - 2163-02_Inhibitor_Dose_CherryPick_Activity. Type of experiment: functional, Mycobacterium tuberculosis UT205.

For another experiment, the target named is T2, Cytochrome P450 1A2 (Homo sapiens, UniProt P05177).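 Further: PubChem cytochrome P450 panel assay, CYP1A2 panel member.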
T2 sequence (P05177 whole entry): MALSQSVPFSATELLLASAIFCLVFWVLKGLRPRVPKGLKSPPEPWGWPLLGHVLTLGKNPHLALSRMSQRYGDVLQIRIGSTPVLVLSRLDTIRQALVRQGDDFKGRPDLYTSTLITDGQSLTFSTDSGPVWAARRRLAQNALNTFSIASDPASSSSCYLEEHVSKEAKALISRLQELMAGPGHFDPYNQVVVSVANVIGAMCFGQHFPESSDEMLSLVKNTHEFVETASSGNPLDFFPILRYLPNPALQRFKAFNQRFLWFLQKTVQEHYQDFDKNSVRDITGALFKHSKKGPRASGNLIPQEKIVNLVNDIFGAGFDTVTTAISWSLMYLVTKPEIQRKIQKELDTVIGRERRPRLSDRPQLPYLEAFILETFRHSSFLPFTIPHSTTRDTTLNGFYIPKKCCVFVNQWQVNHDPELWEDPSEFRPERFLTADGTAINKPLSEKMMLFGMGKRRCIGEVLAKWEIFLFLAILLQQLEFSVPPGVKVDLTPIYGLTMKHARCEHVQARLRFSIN

Experiment [7] has as its target T3, Low molecular weight phosphotyrosine protein phosphatase (Homo sapiens, UniProt P24666).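 Further: Dose-response confirmation assay measuring inhibition of LMPTP enzyme activity by fluorescence intensity read-out.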
T3 sequence (P24666 whole entry): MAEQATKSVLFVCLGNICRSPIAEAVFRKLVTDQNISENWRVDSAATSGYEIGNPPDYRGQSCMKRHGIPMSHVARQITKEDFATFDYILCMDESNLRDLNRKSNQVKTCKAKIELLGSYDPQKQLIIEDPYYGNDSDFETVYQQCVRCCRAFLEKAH
Type of experiment: functional. The settings on record: read-out: IC50_Mean.

The next experiment addresses Large T antigen (Simian virus 40, UniProt P03070). Type of experiment: functional, Betapolyomavirus macacae.
The target in a further experiment is Cytochrome P450 3A4 (Homo sapiens, UniProt P08684).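 Further: CYP3A4 tested as one member of a cytochrome P450 panel screen.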
A further experiment has as its system INS1. Nature of the experiment: beta cell apoptosis inhibitors, cytokine rescue, dose response, luminescence, retest (AID 449756).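 Further: cell death triggered by IL-1 beta plus TNF-alpha plus IFN-gamma mixture; protective hits raise ATP signal compared with cytokine alone wells.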 To be noted: Rattus norvegicus. The class given is functional, cell-based.
The target of the next experiment is Cytochrome P450 2C9 (Homo sapiens, UniProt P11712).
Experiment [8] in a line: cytotoxicity toward NIH3T3 fibroblasts, dose response, counter-screen, cell-based, ATP luminescence, mouse fibroblasts (AID 2010).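 Further: cells exposed to compound for about 90 hours before reading.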 The class given is functional.
A short description of experiment [9]: inhibitors of intracellular T. cruzi replication, confirmation, NIH3T3 host cells, beta-gal luminescence (AID 2044).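 Further: intracellular parasites grown in NIH/3T3 mouse fibroblasts as host cells; luminescent beta-galactosidase reporter signal from transgenic T. cruzi replicating inside host cells; inhibitors lower the luminescence signal.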 Type of experiment: functional, cell-based.
The target in a further experiment is Genome polyprotein (dengue virus type 2, UniProt P29990). Nature of the experiment: Dengue-2 NS5 methyltransferase inhibitors, primary screen, biochemical, confirmation dose response (AID 588689). Type of experiment: functional.
Experiment [10] concerns the target T4, Long-chain-fatty-acid--AMP ligase FadD28 (Mycobacterium tuberculosis, UniProt P9WQ59).
T4 sequence (P9WQ59 whole entry): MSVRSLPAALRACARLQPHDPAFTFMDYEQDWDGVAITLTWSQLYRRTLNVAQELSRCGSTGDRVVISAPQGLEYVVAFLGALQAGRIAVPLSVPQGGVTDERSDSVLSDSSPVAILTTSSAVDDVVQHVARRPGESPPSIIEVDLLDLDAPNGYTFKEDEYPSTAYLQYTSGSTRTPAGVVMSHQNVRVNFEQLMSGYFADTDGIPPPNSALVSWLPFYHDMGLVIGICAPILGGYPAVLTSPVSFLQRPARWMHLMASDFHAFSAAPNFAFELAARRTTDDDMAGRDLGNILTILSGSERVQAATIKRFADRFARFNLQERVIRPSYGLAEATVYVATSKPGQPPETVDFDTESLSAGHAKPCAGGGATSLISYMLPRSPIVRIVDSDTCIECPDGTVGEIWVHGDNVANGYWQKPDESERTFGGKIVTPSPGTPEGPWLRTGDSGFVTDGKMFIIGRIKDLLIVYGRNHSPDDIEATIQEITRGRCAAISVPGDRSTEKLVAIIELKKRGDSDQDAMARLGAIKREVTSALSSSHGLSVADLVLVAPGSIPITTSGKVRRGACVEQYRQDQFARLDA
Nature of the experiment: Fluorescence polarization aasay to screen for inhibitors that compete for the binding of FadD28 to a bisubstrate Measured in Biochemical System Using Plate Reader - 2147-01_Inhibitor_Dose_CherryPick_Activity. Type of experiment: functional, Mycobacterium tuberculosis H37Rv.

The source made the active and inactive calls.

Sequence of 26S proteasome non-ATPase regulatory subunit 14 (O00487 whole entry): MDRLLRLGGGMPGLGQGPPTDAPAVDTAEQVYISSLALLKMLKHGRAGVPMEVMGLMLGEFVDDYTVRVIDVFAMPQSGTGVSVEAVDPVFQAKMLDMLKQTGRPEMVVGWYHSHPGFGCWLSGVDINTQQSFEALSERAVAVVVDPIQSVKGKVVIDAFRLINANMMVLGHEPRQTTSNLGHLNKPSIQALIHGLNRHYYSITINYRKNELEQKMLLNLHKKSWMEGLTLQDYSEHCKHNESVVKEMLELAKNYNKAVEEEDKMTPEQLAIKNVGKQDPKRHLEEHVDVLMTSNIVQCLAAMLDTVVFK
Sequence of 72 kDa type IV collagenase (P08253 whole entry): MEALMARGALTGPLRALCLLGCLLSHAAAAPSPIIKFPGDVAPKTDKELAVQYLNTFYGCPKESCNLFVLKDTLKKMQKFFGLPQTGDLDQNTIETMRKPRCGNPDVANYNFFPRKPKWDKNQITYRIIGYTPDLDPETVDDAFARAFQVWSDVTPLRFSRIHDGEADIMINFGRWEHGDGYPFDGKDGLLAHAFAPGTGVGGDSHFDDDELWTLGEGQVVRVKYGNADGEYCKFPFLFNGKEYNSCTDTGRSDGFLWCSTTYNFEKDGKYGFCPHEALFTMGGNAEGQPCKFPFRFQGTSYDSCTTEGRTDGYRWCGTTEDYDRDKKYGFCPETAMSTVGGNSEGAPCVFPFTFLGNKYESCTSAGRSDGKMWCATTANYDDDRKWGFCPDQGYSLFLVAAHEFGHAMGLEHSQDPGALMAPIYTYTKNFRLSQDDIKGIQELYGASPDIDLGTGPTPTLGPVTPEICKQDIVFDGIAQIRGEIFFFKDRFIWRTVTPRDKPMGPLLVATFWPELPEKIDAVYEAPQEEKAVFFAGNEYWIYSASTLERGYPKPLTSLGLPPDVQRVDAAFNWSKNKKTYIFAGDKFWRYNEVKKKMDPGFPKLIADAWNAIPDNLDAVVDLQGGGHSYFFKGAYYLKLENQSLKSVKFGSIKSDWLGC
Sequence of Cytochrome P450 2C9 (P11712 whole entry): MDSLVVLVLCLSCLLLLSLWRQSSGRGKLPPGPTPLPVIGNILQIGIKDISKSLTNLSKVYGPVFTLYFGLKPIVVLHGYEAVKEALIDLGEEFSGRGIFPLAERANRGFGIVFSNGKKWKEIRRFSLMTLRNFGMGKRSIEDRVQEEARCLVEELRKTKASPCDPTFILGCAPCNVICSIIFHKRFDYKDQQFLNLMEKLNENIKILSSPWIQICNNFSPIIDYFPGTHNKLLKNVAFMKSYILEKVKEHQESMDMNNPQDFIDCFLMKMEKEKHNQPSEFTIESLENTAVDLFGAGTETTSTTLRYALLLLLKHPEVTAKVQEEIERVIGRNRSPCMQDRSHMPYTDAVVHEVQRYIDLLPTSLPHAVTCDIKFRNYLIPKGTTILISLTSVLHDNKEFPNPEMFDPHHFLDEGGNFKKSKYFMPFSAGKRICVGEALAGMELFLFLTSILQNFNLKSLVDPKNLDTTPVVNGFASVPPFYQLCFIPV
Sequence of Cytochrome P450 3A4 (P08684 whole entry): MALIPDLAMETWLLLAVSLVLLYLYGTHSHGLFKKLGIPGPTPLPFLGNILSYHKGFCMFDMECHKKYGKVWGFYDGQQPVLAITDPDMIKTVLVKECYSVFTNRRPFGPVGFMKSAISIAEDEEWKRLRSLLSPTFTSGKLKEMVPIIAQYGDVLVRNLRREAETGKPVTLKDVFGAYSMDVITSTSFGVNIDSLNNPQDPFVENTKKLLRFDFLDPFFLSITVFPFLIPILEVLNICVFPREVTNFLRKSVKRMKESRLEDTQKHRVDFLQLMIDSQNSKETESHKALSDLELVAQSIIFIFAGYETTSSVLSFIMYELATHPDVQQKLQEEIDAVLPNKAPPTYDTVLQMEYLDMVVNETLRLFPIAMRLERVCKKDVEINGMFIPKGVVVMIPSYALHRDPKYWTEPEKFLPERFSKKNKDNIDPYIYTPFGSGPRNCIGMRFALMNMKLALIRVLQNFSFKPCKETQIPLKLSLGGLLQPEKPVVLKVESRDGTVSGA
Sequence of Genome polyprotein (P29990 2492-3391 limits assumed): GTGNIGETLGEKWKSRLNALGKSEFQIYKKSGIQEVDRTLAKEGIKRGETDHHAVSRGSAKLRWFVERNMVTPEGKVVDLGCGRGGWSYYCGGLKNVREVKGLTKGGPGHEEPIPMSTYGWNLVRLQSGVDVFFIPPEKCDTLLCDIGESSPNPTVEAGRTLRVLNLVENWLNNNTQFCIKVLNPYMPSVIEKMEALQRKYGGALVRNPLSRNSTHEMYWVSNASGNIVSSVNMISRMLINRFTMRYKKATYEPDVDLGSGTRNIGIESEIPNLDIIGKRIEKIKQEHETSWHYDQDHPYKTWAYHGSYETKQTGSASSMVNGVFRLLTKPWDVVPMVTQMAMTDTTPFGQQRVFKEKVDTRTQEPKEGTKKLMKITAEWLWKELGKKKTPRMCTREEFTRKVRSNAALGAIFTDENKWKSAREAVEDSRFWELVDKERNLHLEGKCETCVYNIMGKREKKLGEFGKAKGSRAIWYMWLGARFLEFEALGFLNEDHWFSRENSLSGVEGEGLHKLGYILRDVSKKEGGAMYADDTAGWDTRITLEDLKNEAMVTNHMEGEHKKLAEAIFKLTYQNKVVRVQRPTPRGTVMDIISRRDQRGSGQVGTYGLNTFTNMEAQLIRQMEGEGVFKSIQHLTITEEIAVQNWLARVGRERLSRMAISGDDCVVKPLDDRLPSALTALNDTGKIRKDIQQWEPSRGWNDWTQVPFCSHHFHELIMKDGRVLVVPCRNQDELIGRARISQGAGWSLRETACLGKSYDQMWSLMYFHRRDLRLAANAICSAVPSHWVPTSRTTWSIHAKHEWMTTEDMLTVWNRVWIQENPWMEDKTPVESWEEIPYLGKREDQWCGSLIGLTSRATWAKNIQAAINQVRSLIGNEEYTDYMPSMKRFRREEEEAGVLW
Sequence of Large T antigen (P03070 whole entry): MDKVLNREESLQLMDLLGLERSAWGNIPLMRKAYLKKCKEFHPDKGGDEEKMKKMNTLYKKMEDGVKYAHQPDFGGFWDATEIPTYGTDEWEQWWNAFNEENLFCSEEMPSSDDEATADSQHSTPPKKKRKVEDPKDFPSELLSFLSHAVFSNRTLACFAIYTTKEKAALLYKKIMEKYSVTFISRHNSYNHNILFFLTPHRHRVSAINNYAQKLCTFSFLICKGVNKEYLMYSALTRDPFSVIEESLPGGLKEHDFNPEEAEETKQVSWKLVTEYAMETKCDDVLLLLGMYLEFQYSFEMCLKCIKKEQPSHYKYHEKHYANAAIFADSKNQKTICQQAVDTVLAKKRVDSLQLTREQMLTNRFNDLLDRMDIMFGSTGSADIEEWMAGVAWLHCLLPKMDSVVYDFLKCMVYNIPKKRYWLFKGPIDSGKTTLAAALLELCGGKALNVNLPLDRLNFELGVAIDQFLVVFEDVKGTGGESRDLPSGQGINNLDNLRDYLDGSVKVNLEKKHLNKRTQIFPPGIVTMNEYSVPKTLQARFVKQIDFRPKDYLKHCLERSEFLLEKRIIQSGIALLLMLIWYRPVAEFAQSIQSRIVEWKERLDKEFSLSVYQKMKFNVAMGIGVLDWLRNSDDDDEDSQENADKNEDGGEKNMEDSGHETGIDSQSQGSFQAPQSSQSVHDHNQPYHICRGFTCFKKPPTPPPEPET

As to `O=C(CC1OC(=O)c2ccccc21)Nc1cc(Cl)ccc1N1CCCC1` (configuration not stated), the results for the IC50 (on Prothrombin; in experiment [1]; in experiment [2]) were > 100 µM (inactive), 14.1 µM (active) and > 100 µM (inactive), respectively.

For orientation: AC50 means the midpoint of the concentration-response curve, whichever way the signal moves. Regarding `COc1ccc(-c2oc3ncnc(NCCN4CCOCC4)c3c2-c2ccc(OC)cc2)cc1`, the AC50 in the experiment on HEK293 was 9.19 µM (active). Moreover, in the experiment with H9c2, the IC50 was > 79 µM (inactive).

Turning to `Cc1cc2c(cc(C(=O)OC(C(=O)NC3CCCCC3)C(C)C)n2C)o1` (configuration not stated), the AC50 in experiment [3] is 5.9 µM (active); in experiment [4] it was 7.23 µM (active); in experiment [5], 55.8 µM (active).

With `COc1cccc(C(=O)CC(=O)C(=O)Nc2ccc(C)cc2Cl)c1`, the AC50 in the experiment on HEK293 is 35 µM (active).

As to `Cc1sc2nc(CSCC(=O)Nc3ccccc3C#N)[nH]c(=O)c2c1C`, the IC50 on Prothrombin was 8.26 µM (active); in [1], 6.2 µM (active); in experiment [2], > 100 µM (inactive).

For the compound `CCCc1c(OCCCOc2ccc(OCC(=O)O)cc2)ccc(C(C)=O)c1O`, the AC50 was 2.54 µM (active) in experiment [6] and 31.6 µM (inconclusive) at Cytochrome P450 1A2.

On to `Nc1ccc2[nH]c(CCCCCCc3nc4cc(N)ccc4[nH]3)nc2c1`, for which the IC50 is 20.8 µM (inactive) in [7] and 5.49 µM (active) on Large T antigen.

As usually defined, the EC50 is the concentration that produces a half-maximal response. With `O=C(Nc1ccc(-c2nc3ccccc3o2)cc1)c1ccc(N2CCOCC2)c([N+](=O)[O-])c1`, the AC50 on Cytochrome P450 3A4 was 11.2 µM (inconclusive); in experiment [3] it was 3.35 µM (active); in [4], 3.62 µM (active); in the experiment on INS1, 5.18 µM (active); in experiment [5], > 70 µM (inactive); at Cytochrome P450 2C9, 2.82 µM (inconclusive). In addition, the EC50 in experiment [8] is > 60 µM (not active); in experiment [9], 1.93 µM (active).

Regarding `Cc1cccc2sc(NC(=O)C3CCCN(S(=O)(=O)c4cccc5nonc45)C3)nc12` (configuration not stated), the results for the IC50 (at Prothrombin; in experiment [1]; in experiment [2]) were 26.2 µM (active), 25.9 µM (active) and > 100 µM (inactive), respectively.

`O=C(CSc1nc2c(c(=O)n1-c1ccccc1)SCC2)N1CCOCC1`: the AC50 in [6] is 2.62 µM (active).

With `Cc1ccc(S(=O)(=O)N2[C@@H](c3cccc(Cl)c3)C(C(=O)O)=CC[C@H]2c2cccc(Cl)c2)cc1`, the IC50 at Genome polyprotein is 48.3 µM (active). Besides, the AC50 in experiment [10] was 24.9 µM (active).

Regarding `Cc1ccccc1S(=O)(=O)NCC[C@H]1CC[C@@H](NC(=O)Nc2cccc(F)c2)[C@H](CO)O1`, the concentration at half-maximal activity (AC50) in [6] was 11.3 µM (active).

On to `CN1c2ccc(-c3cccc(C#N)c3)cc2[C@H]2[C@H](CCN2C(=O)CC2CC2)[C@H]1CO`, for which the AC50 in [6] was 3.56 µM (active).

These data come from ChEMBL document CHEMBL1201862, “PubChem BioAssay data set” (2004).
